Measured values published in PMC6585620 (Clinical Pharmacology and Therapeutics, 2018).
Where two headings read alike, the source gives them in different places.

Legend:
[1] = PKPD exposure-response analysis of SOLO2; assay type: in vivo, human; settings: for a 50% increase in exposure to olaparib
[2] = Physicochemical properties; settings: PBPK input
[3] = molecular target: T1, UGT1A1 (Homo sapiens, UniProt P22309); settings: read-out: UGT1A1 inhibition IC50; in vitro; cited from earlier work
T1 sequence (P22309 26-533): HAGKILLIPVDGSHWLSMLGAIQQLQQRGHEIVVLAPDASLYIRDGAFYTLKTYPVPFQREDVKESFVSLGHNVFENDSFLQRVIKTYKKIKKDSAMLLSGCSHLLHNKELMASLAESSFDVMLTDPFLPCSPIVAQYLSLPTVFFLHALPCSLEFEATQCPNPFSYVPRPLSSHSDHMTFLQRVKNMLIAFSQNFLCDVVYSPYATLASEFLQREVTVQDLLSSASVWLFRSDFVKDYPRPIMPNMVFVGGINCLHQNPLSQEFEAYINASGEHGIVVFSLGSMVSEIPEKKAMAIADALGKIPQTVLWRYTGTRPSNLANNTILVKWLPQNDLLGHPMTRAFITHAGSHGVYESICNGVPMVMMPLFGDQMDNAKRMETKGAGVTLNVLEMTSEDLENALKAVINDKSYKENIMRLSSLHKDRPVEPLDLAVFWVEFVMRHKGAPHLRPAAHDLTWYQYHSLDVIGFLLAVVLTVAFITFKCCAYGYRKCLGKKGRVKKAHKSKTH

[4] = PBPK model parameters estimated or predicted in Simcyp; set-up: species or system human; settings: for CYP3A CLint: retrograde approach
[5] = molecular target: T2, CYP3A4 (Homo sapiens, UniProt P08684); experiment: In vitro CYP3A4 reversible inhibition; assay type: in vitro ADME
[6] = Mass balance ADME study with [14C]-olaparib; assay type: in vivo, human; settings: Figure S1
[7] = molecular target: T3, P‐glycoprotein (P‐gp) (Homo sapiens, UniProt P08183); settings: read-out: P‐gp inhibition IC50; in vitro; cited from earlier work
[8] = observed, cited from earlier work
[9] = molecular target: T2, CYP3A4; experiment: In vitro CYP3A4 time-dependent inhibition; assay type: in vitro ADME; settings: measured data
[10] = system: CYP3A4; experiment: In vitro CYP3A4 induction; assay type: in vitro ADME, human
[11] = cited from earlier work; for Increase in AUC vs normal renal function / Increase in Cmax vs normal renal function: single oral 300 mg tablet
[12] = molecular target: T3, P‐glycoprotein (P‐gp); experiment: In vitro P-gp inhibition; assay type: in vitro ADME
[13] = tablet 300 mg bid, cited from earlier work
[14] = Blood-to-plasma ratio and plasma unbound fraction; assay type: in vitro ADME
[15] = molecular target: T1, UGT1A1; experiment: In vitro UGT1A1 inhibition; assay type: in vitro ADME; settings: UGT1A1 (Ki=IC50/2), measured data
[16] = capsule model, estimated based on clinical data
[17] = capsule 400 mg single dose, arithmetic mean (min–max)
[18] = tablet 300 mg bid multiple dose
[19] = adults SOLO2 (observed), ref SOLO2 (NCT01874353)

T3 sequence (P08183 whole entry): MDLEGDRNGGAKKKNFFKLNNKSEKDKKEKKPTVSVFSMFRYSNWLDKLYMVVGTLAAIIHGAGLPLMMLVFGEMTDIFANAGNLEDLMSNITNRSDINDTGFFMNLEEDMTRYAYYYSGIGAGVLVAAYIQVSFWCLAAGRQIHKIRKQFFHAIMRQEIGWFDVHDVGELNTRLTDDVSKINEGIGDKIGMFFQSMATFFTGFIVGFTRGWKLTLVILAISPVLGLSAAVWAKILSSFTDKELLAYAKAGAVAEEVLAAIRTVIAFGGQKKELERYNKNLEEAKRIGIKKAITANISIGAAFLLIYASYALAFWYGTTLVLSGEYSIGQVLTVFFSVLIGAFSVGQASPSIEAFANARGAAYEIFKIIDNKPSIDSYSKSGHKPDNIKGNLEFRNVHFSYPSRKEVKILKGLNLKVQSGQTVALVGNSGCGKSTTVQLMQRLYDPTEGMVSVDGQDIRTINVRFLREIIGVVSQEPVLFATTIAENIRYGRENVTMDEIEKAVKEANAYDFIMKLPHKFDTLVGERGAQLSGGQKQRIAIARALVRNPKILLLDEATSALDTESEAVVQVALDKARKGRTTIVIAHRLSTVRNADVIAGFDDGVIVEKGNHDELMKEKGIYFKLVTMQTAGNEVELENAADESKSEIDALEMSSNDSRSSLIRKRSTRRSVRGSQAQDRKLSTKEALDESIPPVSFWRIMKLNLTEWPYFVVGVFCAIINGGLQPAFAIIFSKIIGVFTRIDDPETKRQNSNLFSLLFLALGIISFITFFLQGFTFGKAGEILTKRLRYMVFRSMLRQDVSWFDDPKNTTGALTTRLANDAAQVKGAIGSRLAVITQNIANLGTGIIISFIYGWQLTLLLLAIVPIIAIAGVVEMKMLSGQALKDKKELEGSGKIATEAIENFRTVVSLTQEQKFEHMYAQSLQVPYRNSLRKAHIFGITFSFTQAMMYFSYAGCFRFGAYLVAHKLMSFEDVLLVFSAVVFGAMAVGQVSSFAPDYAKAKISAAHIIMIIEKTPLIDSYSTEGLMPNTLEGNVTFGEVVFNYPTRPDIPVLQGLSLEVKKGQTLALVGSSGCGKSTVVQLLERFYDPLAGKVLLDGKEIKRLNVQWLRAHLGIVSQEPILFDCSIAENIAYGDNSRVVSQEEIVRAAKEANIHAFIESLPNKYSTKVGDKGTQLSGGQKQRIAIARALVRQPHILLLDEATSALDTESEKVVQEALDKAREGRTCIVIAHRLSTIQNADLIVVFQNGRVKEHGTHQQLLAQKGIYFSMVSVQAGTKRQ
T2 sequence (P08684 whole entry): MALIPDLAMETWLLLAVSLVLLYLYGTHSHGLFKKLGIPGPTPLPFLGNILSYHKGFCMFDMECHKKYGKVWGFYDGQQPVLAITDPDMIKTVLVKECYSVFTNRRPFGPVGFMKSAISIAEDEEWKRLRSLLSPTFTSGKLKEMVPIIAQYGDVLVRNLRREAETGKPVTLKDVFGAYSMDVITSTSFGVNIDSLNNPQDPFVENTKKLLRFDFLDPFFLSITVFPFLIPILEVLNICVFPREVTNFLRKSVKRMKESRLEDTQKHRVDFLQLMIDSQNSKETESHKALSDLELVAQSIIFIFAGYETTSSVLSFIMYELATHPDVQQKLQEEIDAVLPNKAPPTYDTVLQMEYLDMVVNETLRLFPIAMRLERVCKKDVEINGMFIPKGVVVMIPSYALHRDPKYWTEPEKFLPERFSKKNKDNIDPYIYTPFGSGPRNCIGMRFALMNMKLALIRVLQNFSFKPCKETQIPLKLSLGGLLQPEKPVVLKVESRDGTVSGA

- Predicted drop in hemoglobin level [1]: ~17.5%
- pKa [2]: Neutral
- Log P ([2]; measured data): 1.55 (measured data)
- Ki [5]: 59.5 µM
- Share of total clearance by oxidation via CYP3A4/5 [6]: 84%
- Share of total clearance by renal elimination [6]: 16%
- CYP3A4 TDI KI [9]: 72.2 (measured data) μM
- EC50 ([10]; human): 17.7 µM
- CYP3A4 induction Emax ([10]; measured data): 48.1 (measured data) fold
- Ki [12]: 73.9 µM
- fu,plasma ([14]; fraction unbound in plasma, measured data): 0.181 (measured data)
- fraction unbound ([14]; human, plasma): 0.181
- Ki [15]: 48.4 µM
SMILES: O=C(c1cc(Cc2n[nH]c(=O)c3ccccc23)ccc1F)N1CCN(C(=O)C2CC2)CC1 [Olaparib]
- IC50 [3]: 96.7 µM
- CLpo [4, 16]: 6.07 (estimated based on clinical data) L/h
- Peff,man [4, 16]: 644 ×10⁻⁶ cm/s (estimated based on clinical data)
- CYP3A CLint ([4]; capsule model): 0.0412 (retrograde approach) µL/min/pmol of isoform
- CLpo ([4]; tablet model, estimated based on clinical data): 7.6 (estimated based on clinical data) L/h
- CYP3A CLint ([4]; tablet model): 0.057 (retrograde approach) µL/min/pmol of isoform
- IC50 [7]: 76 µM
- AUCt (range) [8, 17]: 56.2 (21.9–299) h·µg/mL
- Cmax (range) [8, 17]: 4.44 (3–15) µg/mL
- AUCss (range) [8, 18]: 63.8 (25.5–189) h·µg/mL
- Cmax (range) [8, 18]: 9.71 (4.8–24.9) µg/mL
- Cmax (range) ([8]; tablet 300 mg single dose, arithmetic mean (min–max)): 7.41 (2.6–19.1) µg/mL
- Renal clearance ([11]; based on clinical data, ref NCT01894256): 1.48 (based on clinical data: NCT01894256) L/h
- Change in AUC and Cmax vs normal hepatic function ([11]; mild and moderate hepatic impairment): < 15%
- Increase in AUC vs normal renal function ([11]; mild renal impairment): 24%
- Increase in Cmax vs normal renal function ([11]; mild renal impairment): 15%
- Increase in AUC vs normal renal function ([11]; moderate renal impairment): 44%
- Increase in Cmax vs normal renal function ([11]; moderate renal impairment): 26%
- Geometric mean AUC (95% CI) ([13]; adults OlympiAD (observed), ref OlympiAD (NCT02000622)): 41.2 (36.1‐47.0) h·µg/mL
- Geometric mean AUC (95% CI) [13, 19]: 40.7 (37.7–44.0) h·µg/mL
- Geometric mean Cmax (95% CI) [13, 19]: 7.12 (6.75–7.51) μg/mL
